Laboratory results from patent US12459974B2, “Bicyclic peptide ligands specific for Nectin-4” (priority 2018, dated 2025).
*1 amine or outer side, *2 acyl side, *3 side chain or, on linkers, in order; H or OH if unused. Where a SMILES comes first, the peptide text is derived from it. Bridges are numbered along the chain shown (N, C = ends). Roman numbers before positions name the chains, in order. [ ]: non-standard residue; d: D form. The star is where a group is joined. ξ: configuration not given here. TATA = O=C(CC[*:1])N1CN(C(=O)CC[*:2])CN(C(=O)CC[*:3])C1; Dolaproine = CO[C@@H]([C@@H]1CCCN1)[C@@H](C)C(=O)O; X1 = CC[C@H](C)C(C(CC(=O)[*:2])OC)N(C)[*:1]; 1Nal = N[C@@H](Cc1cccc2ccccc12)C(=O)O; X3 = O=C(CCCC(=O)[*:2])NCCC(=O)[*:1]; PABC = O=C(OCc1ccc(N[*:1])cc1)[*:2]; Hyp = O=C(O)[C@@H]1C[C@@H](O)CN1; hArg = N=C(N)NCCCC[C@H](N)C(=O)O; Cit = NC(=O)NCCC[C@H](N)C(=O)O; X2 = CC(N*)[C@@H](O)c1ccccc1; ξNMeV = CNC(C(=O)O)C(C)C; ξV = CC(C)C(N)C(=O)O; Sar = CNCC(=O)O

How the values were obtained:
LU-01-0412 PDX = assay: Example 12: in vivo efficacy in Lu-01-0412 PDX model of lung cancer; set-up: species or system Mus Musculus
Description: Animals were checked daily for any effects of tumor growth and treatments on normal behavior such as mobility, food and water consumption (by looking only), body weight gain/loss, eye/hair matting and any other abnormal effect as stated in the protocol. Death and observed clinical signs were recorded on the basis of the numbers of animals within each subset.

HT-1376 xenograft = assay: Example 2: in vivo efficacy in HT-1376 xenograft (bladder cancer model) in CB17-SCID mice
Description: The major endpoint was to see if the tumor growth could be delayed or mice could be cured. Tumor volume was measured three times weekly in two dimensions using a caliper, and the volume was expressed in mm^3 using the formula: V=0.5 a×b^2 where a and b are the long and short diameters of the tumor, respectively. The tumor size was then used for calculations of T/C value. The T/C value (in percent) is an indication of antitumor effectiveness; T and C are the mean volumes of the treated and control groups, respectively, on a given day. TGI was calculated for each group using the formula: TGI (%)=[1−(Ti−T0)/(Vi−V0)]×100; Ti is the average tumor volume of a treatment group on a given day, T0 is the average tumor volume of the treatment group on the day of treatment start, Vi is the average tumor volume of the vehicle control group on the same day with Ti, and V0 is the average tumor volume of the vehicle group on the day of treatment start.
A one-way ANOVA was performed to compare tumor volume among groups, and when a significant F-statistics (a ratio of treatment variance to the error variance) was obtained, comparisons between groups were carried out with Games-Howell test. […] P<0.05 was considered to be statistically significant.
• Species: Mus Musculus • Strain: CB17-SCID • Age: 6-8 weeks • Sex: female • Body weight: 18-22 g • Number of animals: 21-41 mice plus spare • Animal supplier: Shanghai LC Laboratory Animal Co., LTD.
The HT-1376 tumor cells were maintained in vitro as a monolayer culture in EMEM medium supplemented with 10% heat inactivated fetal bovine serum at 37° C. in an atmosphere of 5% CO2 in air. The tumor cells were routinely subcultured twice weekly by trypsin-EDTA treatment.
Each mouse was inoculated subcutaneously at the right flank with HT-1376 tumor cells (5×10^6) in 0.2 ml of PBS with matrigel (1:1) for tumor development. Animals were randomized when the average tumor volume reached 153-164 mm^3.
Tumor growth inhibition rate for Test articles in the HT-1376 xenograft model was calculated based on tumor volume measurements at day 21 after the start of treatment.

Panc2.13 xenograft = assay: Example 3: in vivo efficacy in Panc2.13 xenograft (pancreatic cancer model) in Balb/c nude mice; set-up: species or system Mus Musculus; settings: for TGI / Tumor volume (TV): day 14; for Tumor volume: 3 mpk, biw, iv
[1] = 3 mg/kg biw, day 21, groups 8-17
[2] = 3 mg/kg qw, day 21, groups 8-17
[3] = 5 mg/kg qw, day 21, groups 8-17

CC[C@H](C)C(C(CC(=O)N1CCC[C@H]1[C@H](OC)[C@@H](C)C(=O)NC(C)[C@@H](O)c1ccccc1)OC)N(C)C(=O)[C@@H](NC(=O)C(C(C)C)N(C)C(=O)OCc1ccc(NC(=O)[C@H](CCCNC(N)=O)NC(=O)C(NC(=O)CCCC(=O)NCCC(=O)N(C)CC(=O)N(C)CC(=O)N(C)CC(=O)N(C)CC(=O)N(C)CC(=O)N(C)CC(=O)N(C)CC(=O)N(C)CC(=O)N(C)CC(=O)N(C)CC(=O)N[C@H]2CSCCC(=O)N3CN4CN(C3)C(=O)CCSC[C@H](NC(=O)[C@@H](CC(=O)O)NC(=O)[C@H](Cc3cccc5ccccc35)NC(=O)[C@@H]3CCCN3C2=O)C(=O)N[C@@H](CCSC)C(=O)N[C@@H](CCCCNC(=N)N)C(=O)N[C@@H](CC(=O)O)C(=O)N[C@@H](Cc2c[nH]c3ccccc23)C(=O)N[C@@H](CO)C(=O)N[C@@H]([C@@H](C)O)C(=O)N2CCC[C@H]2C(=O)N2C[C@H](O)C[C@H]2C(=O)N[C@@H](Cc2c[nH]c3ccccc23)C(=O)N[C@H](C(N)=O)CSCCC4=O)C(C)C)cc1)C(C)C (stereo partly drawn) [BCY8245, MMAE-PABC-Cit-Val-Glutaryl-BCY8234] (I: [Sar][Sar][Sar][Sar][Sar][Sar][Sar][Sar][Sar][Sar]CP[1Nal][dD]CM[hArg]DWSTP[Hyp]WC-NH2 / II: [ξV][Cit][PABC][ξNMeV]V[X1][Dolaproine]-X2; linker I:11-I:15-I:25 via TATA; linker I:N-II:N via X3)
efficacy (in words) (LU-01-0412 PDX; 1 mg/kg qw): reduction in tumour growth rate
efficacy (in words) (LU-01-0412 PDX; 3 mg/kg qw): marked tumor regression
animals with no tumour regrowth (LU-01-0412 PDX; 3 mg/kg qw, after cessation of dosing (Day 21) out to 105 days post study start): 5/6
response of large tumors (vehicle treated group) to a single dose (in words) (LU-01-0412 PDX; single dose): regressed
antitumor activity (in words) (HT-1376 xenograft; 1 mg/kg): slight antitumor activity
TGI (HT-1376 xenograft; [1]): 72.3%
Tumor volume (TV) (HT-1376 xenograft; [1]): 407 mm^3
TGI (HT-1376 xenograft; [2]): 50.9%
Tumor volume (TV) (HT-1376 xenograft; [2]): 603 mm^3
TGI (HT-1376 xenograft; [3]): 66.0%
Tumor volume (TV) (HT-1376 xenograft; [3]): 465 mm^3
Tumor volume (HT-1376 xenograft; 1/3 mpk, qw, iv (1 mg/kg first week, 3 mg/kg following 2 weeks), day 0 after start of treatment (Table 14)): 164 ± 16 mm^3
Tumor volume (HT-1376 xenograft; 1/3 mpk, qw, iv (1 mg/kg first week, 3 mg/kg following 2 weeks), day 2 (Table 14)): 184 ± 12 mm^3
Tumor volume (HT-1376 xenograft; 1/3 mpk, qw, iv (1 mg/kg first week, 3 mg/kg following 2 weeks), day 4 (Table 14)): 206 ± 14 mm^3
Tumor volume (HT-1376 xenograft; 1/3 mpk, qw, iv (1 mg/kg first week, 3 mg/kg following 2 weeks), day 7 (Table 14)): 265 ± 21 mm^3
Tumor volume (HT-1376 xenograft; 1/3 mpk, qw, iv (1 mg/kg first week, 3 mg/kg following 2 weeks), day 9 (Table 14)): 291 ± 10 mm^3
Tumor volume (HT-1376 xenograft; 1/3 mpk, qw, iv (1 mg/kg first week, 3 mg/kg following 2 weeks), day 11 (Table 14)): 281 ± 28 mm^3
Tumor volume (HT-1376 xenograft; 1/3 mpk, qw, iv (1 mg/kg first week, 3 mg/kg following 2 weeks), day 14 (Table 14)): 335 ± 16 mm^3
Tumor volume (HT-1376 xenograft; 1/3 mpk, qw, iv (1 mg/kg first week, 3 mg/kg following 2 weeks), day 16 (Table 14)): 354 ± 11 mm^3
Tumor volume (HT-1376 xenograft; 1/3 mpk, qw, iv (1 mg/kg first week, 3 mg/kg following 2 weeks), day 18 (Table 14)): 309 ± 19 mm^3
Tumor volume (HT-1376 xenograft; 1/3 mpk, qw, iv (1 mg/kg first week, 3 mg/kg following 2 weeks), day 21 (Table 14)): 347 ± 14 mm^3
T/C (HT-1376 xenograft; 3 mpk, biw (Table 17)): 38.1%
TGI (HT-1376 xenograft; 3 mpk, biw (Table 17)): 72.3%
Tumor volume (HT-1376 xenograft; 3 mpk, biw, iv, day 0 after start of treatment (Table 15)): 154 ± 30 mm^3
Tumor volume (HT-1376 xenograft; 3 mpk, biw, iv, day 2 (Table 15)): 248 ± 58 mm^3
Tumor volume (HT-1376 xenograft; 3 mpk, biw, iv, day 5 (Table 15)): 203 ± 15 mm^3
Tumor volume (HT-1376 xenograft; 3 mpk, biw, iv, day 7 (Table 15)): 273 ± 45 mm^3
Tumor volume (HT-1376 xenograft; 3 mpk, biw, iv, day 9 (Table 15)): 356 ± 50 mm^3
Tumor volume (HT-1376 xenograft; 3 mpk, biw, iv, day 12 (Table 15)): 391 ± 53 mm^3
Tumor volume (HT-1376 xenograft; 3 mpk, biw, iv, day 14 (Table 15)): 407 ± 53 mm^3
Tumor volume (HT-1376 xenograft; 3 mpk, biw, day 14 values of Table 15, Mean ± SEM (Table 17)): 407 ± 53 mm^3
T/C (HT-1376 xenograft; 3 mpk, qw (Table 17)): 56.4%
TGI (HT-1376 xenograft; 3 mpk, qw (Table 17)): 50.9%
Tumor volume (HT-1376 xenograft; 3 mpk, qw, iv, day 0 after start of treatment (Table 15, groups 8-17)): 153 ± 26 mm^3
Tumor volume (HT-1376 xenograft; 3 mpk, qw, iv, day 2 (Table 15)): 254 ± 53 mm^3
Tumor volume (HT-1376 xenograft; 3 mpk, qw, iv, day 5 (Table 15)): 298 ± 69 mm^3
Tumor volume (HT-1376 xenograft; 3 mpk, qw, iv, day 7 (Table 15)): 398 ± 61 mm^3
Tumor volume (HT-1376 xenograft; 3 mpk, qw, iv, day 9 (Table 15)): 468 ± 73 mm^3
Tumor volume (HT-1376 xenograft; 3 mpk, qw, iv, day 12 (Table 15)): 502 ± 67 mm^3
Tumor volume (HT-1376 xenograft; 3 mpk, qw, iv, day 14 (Table 15)): 603 ± 76 mm^3
Tumor volume (HT-1376 xenograft; 3 mpk, qw, day 14 values of Table 15, Mean ± SEM (Table 17)): 603 ± 76 mm^3
T/C (HT-1376 xenograft; 3 mpk, qw, day 21 (Table 16)): 39.2%
TGI (HT-1376 xenograft; 3 mpk, qw, day 21 (Table 16)): 74.5%
Tumor volume (HT-1376 xenograft; 3 mpk, qw, day 21, Mean ± SEM (Table 16)): 347 ± 14 mm^3
T/C (HT-1376 xenograft; 5 mpk, qw (Table 17)): 43.5%
TGI (HT-1376 xenograft; 5 mpk, qw (Table 17)): 66.0%
Tumor volume (HT-1376 xenograft; 5 mpk, qw, iv, day 0 after start of treatment (Table 15)): 153 ± 15 mm^3
Tumor volume (HT-1376 xenograft; 5 mpk, qw, iv, day 2 (Table 15)): 237 ± 41 mm^3
Tumor volume (HT-1376 xenograft; 5 mpk, qw, iv, day 5 (Table 15)): 228 ± 36 mm^3
Tumor volume (HT-1376 xenograft; 5 mpk, qw, iv, day 7 (Table 15)): 317 ± 31 mm^3
Tumor volume (HT-1376 xenograft; 5 mpk, qw, iv, day 9 (Table 15)): 394 ± 20 mm^3
Tumor volume (HT-1376 xenograft; 5 mpk, qw, iv, day 12 (Table 15)): 438 ± 31 mm^3
Tumor volume (HT-1376 xenograft; 5 mpk, qw, iv, day 14 (Table 15)): 465 ± 33 mm^3
Tumor volume (HT-1376 xenograft; 5 mpk, qw, day 14 values of Table 15, Mean ± SEM (Table 17)): 465 ± 33 mm^3
efficacy (in words) (HT-1376 xenograft; after increasing dosage to 3 mg/kg from day 7): better efficacy
anti-tumour activity (in words) (HT-1376 xenograft; mouse, in vivo): good anti-tumour activity
TGI (Panc2.13 xenograft; 3 mg/kg biw): 79.1%
Tumor volume (TV) (Panc2.13 xenograft; 3 mg/kg biw): 231 mm^3
TGI (Panc2.13 xenograft; 3 mg/kg qw): 69.2%
Tumor volume (TV) (Panc2.13 xenograft; 3 mg/kg qw): 271 mm^3
TGI (Panc2.13 xenograft; 5 mg/kg qw): 77.5%
Tumor volume (TV) (Panc2.13 xenograft; 5 mg/kg qw): 238 mm^3
Tumor volume (Panc2.13 xenograft; day 0 after start of treatment): 148 ± 46 mm^3
Tumor volume (Panc2.13 xenograft; day 2): 170 ± 38 mm^3
Tumor volume (Panc2.13 xenograft; day 4): 204 ± 57 mm^3
